Measurements published in patent US20170280720A1, “ARGININE […] INHIBITORS AND USES THEREOF” (EPIZYME, INC., priority 2014, published 2017).

Legend:
Human CARM1 (PRMT4) = molecular target: T1, Human CARM1 (PRMT4) (Homo sapiens, UniProt Q86X55); assay: CARM1 biochemical assay (3H-SAM Flashplate, peptide substrate); settings: read-out: CARM1_ IC50
T1 construct: Flag-CARM1-His; made in house; host or cells: HEK 293F cells (BacMam baculovirus, pFastBacMam)
T1 sequence (Q86X55 2-585 isoform Q86X55-1): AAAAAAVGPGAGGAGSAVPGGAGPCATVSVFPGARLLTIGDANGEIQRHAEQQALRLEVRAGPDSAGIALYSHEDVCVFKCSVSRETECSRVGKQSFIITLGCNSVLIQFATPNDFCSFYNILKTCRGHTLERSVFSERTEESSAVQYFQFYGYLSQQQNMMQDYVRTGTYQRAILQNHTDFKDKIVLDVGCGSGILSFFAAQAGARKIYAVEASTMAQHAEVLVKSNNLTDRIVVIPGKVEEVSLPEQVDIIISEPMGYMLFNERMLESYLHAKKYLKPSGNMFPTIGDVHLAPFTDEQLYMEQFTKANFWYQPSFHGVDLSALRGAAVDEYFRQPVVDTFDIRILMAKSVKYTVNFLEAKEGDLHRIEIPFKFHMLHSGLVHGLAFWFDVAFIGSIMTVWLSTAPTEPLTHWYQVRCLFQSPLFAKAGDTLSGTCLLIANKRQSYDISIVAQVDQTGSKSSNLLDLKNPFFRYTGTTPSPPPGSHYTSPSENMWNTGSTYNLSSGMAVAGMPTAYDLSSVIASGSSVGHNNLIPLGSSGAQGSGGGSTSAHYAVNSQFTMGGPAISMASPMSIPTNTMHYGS
Summary of the method: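 FLAG/His-tagged human CARM1 (isoform 1, Δ539-561, baculovirus-expressed), 0.25 nM, preincubated 30 min at room temperature with compound (2% DMSO) in 20 mM Bicine pH 7.6, then reacted with 30 nM 3H-SAM and 250 nM biotinylated H3 16-30 peptide (R26 monomethyl). Stopped with 300 uM cold SAM; labelled peptide captured on streptavidin Flashplate; % inhibition versus DMSO and 1 mM SAH controls fitted to a 4- or 3-parameter curve.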

[1] = tested on: asymmetric di-methyl PABP1 in RKO cells; assay: In Cell Western (ICW) for asymmetric di-methyl PABP1 and DNA content in RKO cells; assay type: cell-based; settings: Homo sapiens, RKO, In Cell Western
Text: RKO adherent cells were purchased from ATCC (American Type Culture Collection), Manassas, Va., USA. DMEM/Glutamax medium, penicillin-streptomycin, heat inactivated fetal bovine serum, 0.05% trypsin and D-PBS were purchased from Life Technologies, Grand Island, N.Y., USA. Odyssey blocking buffer, 800CW goat anti-rabbit IgG (H+L) antibody, and Licor Odyssey infrared scanner were purchased from Licor Biosciences, Lincoln, Nebr., USA. Mono-methyl arginine antibody was purchased from Cell Signaling Technology, Danvers, Mass., USA. Methanol was purchased from VWR, Franklin, Mass., USA. 10% Tween 20 was purchased from KPL, Inc., Gaithersburg, Md., USA. […] was purchased from Biostatus Limited, Leicestershire, UK. RKO adherent cells were maintained in growth medium (DMEM/Glutamax medium supplemented with 10% v/v heat inactivated fetal bovine serum and 100 units/mL penicillin-streptomycin) and cultured at 37° C. under 5% CO2. Cell Treatment, in Cell Western (ICW) for Detection of Asymmetric Di-Methyl PABP1 and DNA Content. RKO cells were seeded in assay medium at a concentration of 30,000 cells per mL to a poly-D-lysine coated 384 well culture plate (BD Biosciences 356697) with 50 μL per well. Compound (100 nL) from a 96-well source plate was added directly to 384 well cell plate. Plates were incubated at 37° C., 5% CO2 for 48 hours. After two days of incubation, plates were brought to room temperature outside of the incubator for ten minutes and blotted on paper towels to remove cell media. Cells were fixed for 20 minutes at room temperature by adding 50 μl of 8% PFA followed by aspiration of supernatant with the Biotek EL406 plate washer. Cells were then permeabilized by addition of 50 μL of ice cold 100% methanol directly to each well and incubated for 30 min at room temperature. After 30 min, plates were transferred to a Biotek EL406 plate washer and washed 2 times with 100 μL per well of wash buffer (1×PBS). Next 60 μL per well of Odyssey blocking buffer (Odyssey Buffer with 0.1% Tween 20 (v/v)) were added to each plate and incubated 1 hour at room temperature. Blocking buffer was removed and 20 μL per well of primary antibody was added (asymmetric-methyl PABP1) diluted 1:400 in Odyssey buffer with 0.1% Tween 20 (v/v)) and plates were incubated overnight (16 hours) at 4° C. Plates were washed 5 times with 100 μL per well of wash buffer. Next 20 μL per well of secondary antibody was added (1:800 800CW goat anti-rabbit IgG (H+L) antibody, 1:2000 DRAQS in Odyssey buffer with 0.1% Tween 20 (v/v)) and incubated for 1 hour at room temperature. The plates were washed 5 times with 100 μL per well wash buffer then 2 times with 100 μL per well of water. Plates were allowed to dry at room temperature then imaged on the Licor Odyssey machine which measures integrated intensity at 700 nm and 800 nm wavelengths. Both 700 and 800 channels were scanned. Calculations: First, the ratio for each well was determined by: Each plate included fourteen control wells of DMSO only treatment (minimum inhibition) as well as fourteen control wells for maximum inhibition treated with 20 μM of a reference compound. The average of the ratio values for each control type was calculated and used to determine the percent activation for each test well in the plate. Reference compound was serially diluted three-fold in DMSO for a total of nine test concentrations, beginning at 20 μM. Percent inhibition was determined and IC50 curves were generated using triplicate wells per concentration of compound.

IC50 (Human CARM1 (PRMT4)) [nM]	IC50 [1] [µM]	SMILES
51	5.69	Cc1c(N(C)CC2CC2)cc(-c2cccc(CN(C)CCN)c2)cc1N1CCOCC1 [Compound 241]
52	20	Cc1c(C(=O)NC2CCOCC2)cc(-c2cccc(CN(C)CCN)c2)cc1N(C)CC1CC1 [Compound 243]
53.6	20	CN(CCN)Cc1cccc(-c2ccc(C(=O)NC3CCOCC3)c(N(C)CC3CC3)c2)c1 [Compound 245]
54.7	20	CNCCN(C)Cc1cccc(-c2cc(-c3ccc(O)cc3)c3cnn(C(C)C)c3n2)c1 [Compound 247]
59.3	20	CNCCN(C)Cc1cccc(-c2cc(C(=O)N3CCC3)c3cnn(C(C)C)c3n2)c1 [Compound 252]
61.3	6.09	CCn1ncc2c(C(=O)NC3CCOCC3)cc(-c3cccc(CN(C)CCNC)c3)nc21 [Compound 253]
61.8	5.52	CCN(Cc1cccnc1)C(=O)c1cc(-c2cccc(CN(C)CCNC)c2)nc2c1cnn2C(C)C [Compound 254]
62.3	3.87	CCNC(=O)c1cc(-c2cccc(CN(C)CCNC)c2)nc2c1cnn2C(C)C [Compound 255]
63.5	10.3	CC(C)n1ncc2c(C(=O)N3CCC(F)C3)cc(-c3cccc(CN(C)CCN)c3)nc21 (stereo not drawn) [Compound 257]
64.2	18.5	CC(C)n1ncc2c(C(=O)N3CCSCC3)cc(-c3cccc(CN(C)CCN)c3)nc21 [Compound 258]
67	20	CNCCN(C)Cc1cccc(-c2cc(C(=O)NCc3cccc(F)c3)c3cnn(C(C)C)c3n2)c1 [Compound 259]
68.2	20	CNCCN(C)Cc1cccc(-c2cc(C(=O)N[C@@H](C)c3ccccc3)c3cnn(Cc4ccncc4)c3n2)c1 [Compound 260]
69.4	20	CC(C)n1ncc2c(C(=O)N3CCC(F)(F)C3)cc(-c3cccc(CN(C)CCN)c3)nc21 [Compound 261]
70.2	10.2	CC(C)n1ncc2c(C(=O)NCc3cn(C)cn3)cc(-c3cccc(CN(C)CCN)c3)nc21 [Compound 262]
74.4	10.3	CC(C)n1ncc2c(C(=O)N(C)C3CCOCC3)cc(-c3cccc(CN(C)CCN)c3)nc21 [Compound 265]
81	5.14	CNCCN(C)Cc1cccc(-c2cc(C(=O)NC3CCOCC3)c3cnn(CC(F)(F)F)c3n2)c1 [Compound 270]
81.4	20	CCNCCN(C)Cc1cccc(-c2cc(C(=O)NCC3CCOCC3)c3cnn(C(C)C)c3n2)c1 [Compound 271]
84.8	20	CC(C)n1ncc2c(C(=O)N3CCN(C)C(=O)C3)cc(-c3cccc(CN(C)CCN)c3)nc21 [Compound 272]
87.7	14.5	CC(C)n1ncc2c(C(=O)NCC3CCOCC3)cc(-c3cccc(CN(C)CCNC4CCC4)c3)nc21 [Compound 273]
89.3	20	COC1CCN(C(=O)c2cc(-c3cccc(CN(C)CCN)c3)nc3c2cnn3C(C)C)C1 (stereo not drawn) [Compound 274]
92.8	20	CNCCN(C)Cc1cccc(-c2cc(-c3ccc(F)cc3)c3cnn(C(C)C)c3n2)c1 [Compound 275]

IC50 (Human CARM1 (PRMT4)) [nM]	IC50 [1] [µM]	SMILES
94.1	20	CNCCN(C)Cc1cccc(-c2cc(C(=O)NCc3ccc(F)cc3)c3cnn(C(C)C)c3n2)c1 [Compound 276]
105	7.2	CNCCN(C)Cc1cccc(-c2cc(C(=O)NCC3CCOCC3)c3cnn(CC(F)(F)F)c3n2)c1 [Compound 277]
113	18.7	CC(C)n1ncc2c(C(=O)N3CCOCC3)cc(-c3cccc(CN(C)CCN)c3)nc21 [Compound 279]
113	9.49	CNCCN(C)Cc1cccc(-c2cc(C(=O)NCc3cncn3C)c3cnn(C(C)C)c3n2)c1 [Compound 280]
130	8.2	CC(C)n1ncc2c(C(=O)N(C)Cc3ccccn3)cc(-c3cccc(CN(C)CCN)c3)nc21 [Compound 282]
137	20	CNCCN(C)Cc1cccc(-c2cc(C(=O)NC3CCOCC3)c3cnn(C)c3n2)c1 [Compound 284]
148	7.15	C=CCn1ncc2c(C(=O)NCC3CCOCC3)cc(-c3cccc(CN(C)CCNC)c3)nc21 [Compound 286]
159	3.44	CNCCN(C)Cc1cccc(-c2cc(C(=O)NCC(F)(F)F)c3cnn(C(C)C)c3n2)c1 [Compound 288]
163	16.9	CNCCN(C)Cc1cccc(-c2cc(C(=O)NCC3CCOCC3)c3cnn(C)c3n2)c1 [Compound 289]
167	20	CNCCN(C)Cc1cccc(-c2cc(CO)c3cnn(C(C)C)c3n2)c1 [Compound 290]
171	14	CNCCN(C)Cc1cccc(-c2cc(C(=O)N(C)C3CC3)c3cnn(C(C)C)c3n2)c1 [Compound 292]
173	17.6	CNCCN(C)Cc1cccc(-c2cc(C(F)(F)F)c3cnn(C(C)C)c3n2)c1 [Compound 293]
177	4.02	CNCCN(C)Cc1cccc(-c2cc(C(=O)N(C)Cc3cccnc3)c3cnn(C(C)C)c3n2)c1 [Compound 294]
181	12.4	CC(C)n1ncc2c(C(=O)NC3CCOCC3)cc(-c3cccc(CN(C)CCNC4CC4)c3)nc21 [Compound 295]
183	15.7	CNCCN(C)Cc1cccc(-c2cc(C(=O)N3CCN(C)C(=O)C3)c3cnn(C(C)C)c3n2)c1 [Compound 296]
189	20	CC(C)n1cc2c(C(=O)NCC3CCOCC3)cc(-c3cccc(CN(C)CCN)c3)nc2n1 [Compound 297]
200	9.62	CNCCN(C)Cc1cccc(-c2cc(C(=O)N(C)CC3CCOCC3)c3cnn(C(C)C)c3n2)c1 [Compound 298]
209	15.5	CNCCN(C)Cc1cccc(-c2cc(C(=O)N3Cc4cccnc4C3)c3cnn(C(C)C)c3n2)c1 [Compound 301]
250	20	CNCCN(C)Cc1cccc(-c2cc(C(O)c3ccncc3)c3cnn(C(C)C)c3n2)c1 (stereo not drawn) [Compound 307]
293	14.2	CNC(=O)c1cc(-c2cccc(CNCCN)c2)nc2c1cnn2C(C)C [Compound 311]
401	20	CC(C)n1ncc2c(NCC(=O)O)cc(-c3cccc(CN(C)CCN)c3)nc21 [Compound 319]
